Broadly, the Kd is a measure of binding affinity in units of concentration.

This test concerns the target AsrK (vfu_B00258). In words: ITC in borate-depleted buffer; also inhibits autokinase activity of purified full-length AsrK. The test is classed as binding, Vibrio furnissii.

With `CC(=O)C(=O)[C@@H](O)CO` [DPD, 4,5-dihydroxy-2,3-pentanedione], the Kd was 38 ± 4 nM.

For the origin of these results see paper PMC11796354, “Autoinducer-2 enhances the defense of Vibrio furnissii against oxidative stress and DNA damage by modulation of c-di-GMP signaling via a two-component system” (mBio, 2025).
